Data set [1] concerns the target T1, COX-2 (UniProt P35354).
T1 sequence (P35354 1-604): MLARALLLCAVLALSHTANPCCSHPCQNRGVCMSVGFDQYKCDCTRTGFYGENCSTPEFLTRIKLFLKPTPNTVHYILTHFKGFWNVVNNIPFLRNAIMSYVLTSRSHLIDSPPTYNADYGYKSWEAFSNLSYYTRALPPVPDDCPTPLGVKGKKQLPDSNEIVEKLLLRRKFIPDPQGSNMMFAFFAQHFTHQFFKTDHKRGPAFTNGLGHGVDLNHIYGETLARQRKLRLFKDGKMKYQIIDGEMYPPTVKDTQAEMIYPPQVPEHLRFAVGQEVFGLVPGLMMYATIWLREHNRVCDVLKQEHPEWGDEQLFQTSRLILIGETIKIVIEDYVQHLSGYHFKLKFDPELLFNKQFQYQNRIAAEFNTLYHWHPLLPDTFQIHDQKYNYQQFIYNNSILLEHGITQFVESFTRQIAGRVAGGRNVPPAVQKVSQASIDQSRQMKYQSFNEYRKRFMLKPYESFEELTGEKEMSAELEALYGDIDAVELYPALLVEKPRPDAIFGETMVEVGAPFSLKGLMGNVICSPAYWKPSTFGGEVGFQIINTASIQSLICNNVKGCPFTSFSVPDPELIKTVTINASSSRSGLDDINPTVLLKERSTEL
Nature of the data set: Fast assay for COX-2 activity (PGE2 ELISA). Format: biochemical, human or murine. Conditions: fast assay: 10 min pre-incubation at 25° C., reaction stopped after two minutes, pH 7.5. On the technique in general: An ELISA detects its analyte on a solid surface through an enzyme-linked reagent.

In data set [2] the target is T1, COX-2. Nature of the data set: Assay for COX-2 activity (PGE2 ELISA). Particulars: read-out: COX-2 IC50; 10–20 minutes pre-incubation, reaction stopped after ten minutes, pH 8.0.
Procedure: (§1) Recombinant baculoviruses were isolated by transfecting 4 μg of baculovirus transfer vector DNA into SF9 insect cells (2×10^8) along with 200 ng of linearized baculovirus plasmid DNA by the calcium phosphate method. […] Recombinant viruses were purified by three rounds of plaque purification and high titer (10^7–10^8 pfu/mL) stocks of virus were prepared. For large scale production, SF9 insect cells were infected in 10 liter fermentors (0.5×10^6/mL) with the recombinant baculovirus stock such that the multiplicity of infection was 0.1. […] The homogenate was centrifuged at 10,000×G for 30 minutes, and the resultant supernatant was stored at −80° C. before being assayed for COX activity.
Assay for COX-1 and COX-2 Activity
(§2) COX activity was assayed as PGE2 formed/μg protein/time using an ELISA to detect the prostaglandin released. CHAPS-solubilized insect cell membranes containing the appropriate COX enzyme were incubated in a potassium phosphate buffer (50 mM, pH 8.0) containing epinephrine, phenol, and heme with the addition of arachidonic acid (10 μM). […] The PGE2 formed was measured by standard ELISA technology (Cayman Chemical).
For the next data set, the target named is COX-1 (UniProt P23219). Nature of the data set: Assay for COX-1 activity (PGE2 ELISA). Conditions: read-out: COX-1 IC50; 10–20 minutes pre-incubation, reaction stopped after ten minutes, pH 8.0.

Among the data in patent US7138411B2, “Substituted benzopyran derivatives for the treatment of inflammation” (G.D. Searle & Co., priority 1997, dated 2006) are IC50 and melting point values, retold here.

The structures appear in SMILES notation.

Procedure for COX-1: as §1
Assay for COX-1 and COX-2 Activity
as §2

Broadly, the IC50 is the point on the concentration scale where inhibition reaches its midpoint. In general, melting point refers to the temperature, or range, at which the solid turns liquid. `O=C(O)C1=Cc2cc(Cl)c(Oc3ccc(Cl)cc3Cl)cc2OC1C(F)(F)F` (stereo not drawn) [Example 197, 6-Chloro-7-(2,4-dichlorophenoxy)-2-(trifluoromethyl)-2H-1-benzopyran-3-carboxylic acid] gave a melting point of 233 to 234 °C. Also, on COX-2 [1], the IC50 was under 0.1 µM. Further, on COX-2 [2], the concentration for half-maximal inhibition (IC50) was under 0.1 µM. Further, the IC50 on COX-1 came out at 0.4 µM.
In the case of `O=C(O)C1=Cc2cc(Cl)c(Sc3ccc(Cl)cc3)cc2OC1C(F)(F)F` (stereo not drawn) [Example 192, 6-Chloro-7-[(4-chlorophenyl)thio]-2-(trifluoromethyl)-2H-1-benzopyran-3-carboxylic acid], the melting point was in the range of 251.7 to 253.3 °C. On COX-2 [1], the IC50 was under 0.1 µM. Moreover, the IC50 at COX-2 [2] stood at 1.4 µM. In addition, the IC50 on COX-1 is 12.3 µM.
For `O=C(O)C1=Cc2cc(Cl)c(Sc3ccccc3)cc2OC1C(F)(F)F` (stereo not drawn) [Example 195, 6-Chloro-7-(phenylthio)-2-(trifluoromethyl)-2H-1-benzopyran-3-carboxylic acid], the melting point was in the range of 271.7 to 274.4 °C. The compound further yielded an IC50 on COX-2 [1] of under 0.1 µM. Besides, at COX-2 [2], the IC50 is under 0.1 µM. The IC50 on COX-1 came out at 2.6 µM.
As for `O=C(O)C1=Cc2cc(Br)cc(Cl)c2OC1C(F)(F)F` (stereo not drawn) [Example 42, 6-Bromo-8-chloro-2-trifluoromethyl-2H-1-benzopyran-3-carboxylic acid], the melting point fell in the range of 220.7 to 221.7 °C. Besides, on COX-2 [1], the IC50 is under 0.1 µM. Further, the IC50 on COX-2 [2] is under 0.1 µM. Further, the IC50 on COX-1 turned out to be 11 µM.
In turn, `CC(C)(C)c1cc2c(c(C(C)(C)C)c1)OC(C(F)(F)F)C(C(=O)O)=C2` (stereo not drawn) [Example 23, 6,8-bis(1,1-Dimethylethyl)-2-trifluoromethyl-2H-1-benzopyran-3-carboxylic acid] had a melting point of 171.6 to 175 °C. For the same compound, the IC50 against COX-2 [1] stood at 7 µM. Further, the IC50 on COX-2 [2] amounted to 24 µM. At COX-1, the IC50 was over 100 µM.
On the same counts, the results for `O=C(O)C1=Cc2c(ccc3oc4ccccc4c23)OC1C(F)(F)F` (stereo not drawn) [Example 106, 3-(Trifluoromethyl)-3H-benzofuro[3,2-f][1]benzopyran-2-carboxylic acid] are 253.5 to 256 °C, 0.2 µM, under 0.1 µM and 5.7 µM.
Take `O=C(O)C1=Cc2cc(Oc3ccccc3)ccc2OC1C(F)(F)F` (stereo not drawn) [Example 99, 6-Phenoxy-2-(trifluoromethyl)-2H-1-benzopyran-3-carboxylic acid]: the melting point was in the range of 184.9 to 186.4 °C. For the same compound, 0.2 µM corresponded to half-maximal inhibition against COX-2 [1] (IC50). Also, the IC50 on COX-2 [2] is under 0.1 µM. In addition, the IC50 at COX-1 is 23 µM.
As to `C#Cc1ccc2c(c1)C=C(C(=O)O)C(C(F)(F)F)N2` (stereo not drawn) [Example 210, 1,2-Dihydro-6-ethynyl-2-(trifluoromethyl)-3-quinolinecarboxylic acid], the melting point lay in the range of 259 to 268 °C. On COX-2 [1], half-maximal inhibition (IC50) required 1.7 µM. At COX-2 [2], the IC50 came out at 10 µM. Also, on COX-1, the IC50 is over 100 µM.
On the same counts, the results for `O=C(O)C1=Cc2cc(Cl)c([S+]([O-])c3ccc(Cl)cc3)cc2OC1C(F)(F)F` (stereo not drawn) [Example 193, 6-Chloro-7-[(4-chlorophenyl)sulfinyl]-2-(trifluoromethyl)-2H-1-benzopyran-3-carboxylic acid] are 213.8 to 217.4 °C, 1.2 µM, over 100 µM and over 100 µM.
Compound `O=C(O)C1=Cc2cc(C#Cc3ccccc3)ccc2NC1C(F)(F)F` (stereo not drawn) [Example 211, 1,2-Dihydro-6-(phenylethynyl)-2-(trifluoromethyl)-3-quinolinecarboxylic acid] returned a melting point of 218 to 219 °C. This compound displayed an IC50 at COX-2 [1] of 1.9 µM. At COX-2 [2], the half-inhibitory concentration (IC50) stood at 2.4 µM. For the same compound, the IC50 at COX-1 was 3.8 µM.
`O=C(O)C1=Cc2cc(Cl)c(-c3ccccc3)cc2OC1C(F)(F)F` (stereo not drawn) [Example 30, 6-Chloro-7-phenyl-2-trifluoromethyl-2H-1-benzopyran-3-carboxylic acid] gave a melting point of 185.3 to 187.8 °C. Further, the IC50 on COX-2 [1] is under 0.1 µM. The IC50 on COX-2 [2] is 16 µM. In addition, the IC50 on COX-1 was 3.8 µM.
On the same counts, the results for `CC(C)(CO)c1cc2c(cc1Cl)C=C(C(=O)O)C(C(F)(F)F)O2` (stereo not drawn) [Example 178, 6-Chloro-7-(2-hydroxy-1,1-dimethylethyl)-2-(trifluoromethyl)-2H-1-benzopyran-3-carboxylic acid] are 203.8 to 205.4 °C, 8.4 µM, 14.7 µM and over 100 µM.
On the same counts, the results for `N#Cc1ccc(Oc2cc3c(cc2Cl)C=C(C(=O)O)C(C(F)(F)F)O3)cc1` (stereo not drawn) [Example 185, 6-Chloro-7-(4-cyanophenoxy)-2-(trifluoromethyl)-2H-1-benzopyran-3-carboxylic acid] are 212.5 to 215.7 °C, under 0.1 µM, under 0.1 µM and over 100 µM.
On the same counts, the results for `CS(=O)(=O)c1ccc2c(c1)C=C(C(=O)O)C(C(F)(F)F)O2` (stereo not drawn) [Example 56, 6-Methylsulfonyl-2-trifluoromethyl-2H-1-benzopyran-3-carboxylic acid] are 208.3 to 212.4 °C, 12 µM, 29 µM and over 100 µM.
`CC(C)(CO)c1ccc2c(c1)OC(C(F)(F)F)C(C(=O)O)=C2` (stereo not drawn) [Example 179, 7-(2-Hydroxy-1,1-dimethylethyl)-2-(trifluoromethyl)-2H-1-benzopyran-3-carboxylic acid] displayed a melting point of 228.9 to 230 °C. At COX-2 [1], this compound yielded an IC50 of 15.6 µM. In addition, the IC50 on COX-2 [2] is 16 µM. In addition, the IC50 at COX-1 was over 100 µM.
Consider `O=C(O)C1=Cc2cc(Cl)cc(-c3cccs3)c2OC1C(F)(F)F` (stereo not drawn) [Example 116, 6-Chloro-8-(2-thienyl)-2-(trifluoromethyl)-2H-1-benzopyran-3-carboxylic acid], for which the melting point was 257.5 to 258.8 °C. The compound also returned an IC50 against COX-2 [1] of under 0.1 µM. For the same compound, on COX-2 [2], the 50% inhibitory concentration (IC50) is under 0.1 µM. Moreover, on COX-1, the IC50 is under 0.1 µM.
`O=C(O)C1=Cc2cc(Cl)c(I)cc2OC1C(F)(F)F` (stereo not drawn) [Example 180, 6-Chloro-7-iodo-2-(trifluoromethyl)-2H-1-benzopyran-3-carboxylic acid] returned a melting point of 224.9 to 225.9 °C. For the same compound, on COX-2 [1], the IC50 is under 0.1 µM. Also, the IC50 on COX-2 [2] is under 0.1 µM. The IC50 at COX-1 is over 100 µM.
The compound `O=C(O)C1=Cc2cc(-c3ccc(Br)cc3)ccc2OC1C(F)(F)F` (stereo not drawn) [Example 138, 6-(4-Bromophenyl)-2-(trifluoromethyl)-2H-1-benzopyran-3-carboxylic acid] registered a melting point of 215 to 216 °C. The compound also registered an IC50 on COX-2 [1] of 0.3 µM. Also, the IC50 on COX-2 [2] is under 0.1 µM. The IC50 on COX-1 was determined as 11.1 µM.
As for `O=C(O)C1=Cc2cc(Cl)c(Oc3cccnc3Cl)cc2OC1C(F)(F)F` (stereo not drawn) [Example 200, 6-Chloro-7-[(2-chloro-3-pyridinyl)oxy]-2-(trifluoromethyl)-2H-1-benzopyran-3-carboxylic acid], the melting point lay in the range of 213.4 to 216.2 °C. For the same compound, the IC50 against COX-2 [1] was under 0.1 µM. The IC50 on COX-2 [2] was under 0.1 µM. The IC50 at COX-1 is 28.5 µM.
For the compound `COc1ccc(Oc2ccc3c(c2)C=C(C(=O)O)C(C(F)(F)F)O3)cc1Cl` (stereo not drawn) [Example 9, 6-(3-Chloro-4-methoxyphenoxy)-2-(trifluoromethyl)-2H-1-benzopyran-3-carboxylic acid], the melting point fell in the range of 205 to 207 °C. The compound further displayed an IC50 against COX-2 [1] of under 0.1 µM. In addition, the IC50 at COX-2 [2] was under 0.1 µM. Further, on COX-1, the IC50 is under 0.1 µM.
In turn, `CCOC(=O)C1=Cc2cc(N)ccc2OC1C(F)(F)F` (stereo not drawn) [Example 35, Ethyl 6-amino-2-trifluoromethyl-2H-1-benzopyran-3-carboxylate] had a melting point of 111 to 115 °C. The compound also showed an IC50 at COX-2 [1] of 2.2 µM. For the same compound, on COX-2 [2], the IC50 was 1.7 µM. Also, the IC50 at COX-1 stood at 11 µM.
